Measurements from US20050164924A1, “Method and composition for treating skin wounds with epidermal growth factor” (priority 2002, published 2005).
“And” between values parts separate entries of the source, which are not always exact repeats. Identical values can stand only once.

What was measured:
[1] = system: diabetic foot ulcer; assay: Randomized double-blind controlled trial of hEGF in diabetic foot ulcer healing; assay type: in vivo, human; settings: for 100% Healed Time, mean survival time: Kaplan Meier; for healing rate by the end of 12 weeks: topical daily
Experimental: A randomized double-blind controlled trial was conducted to study the efficacy of human epidermal growth factor hEGF) in promoting diabetic foot ulcer healing with 88 patients. Predetermined criteria were used for patient selection, they were; ulcer grade 1-2, ulcer located below the ankle, adequate perfusion as indicated by an ankle brachial-index of ≧0.7. Patients were excluded if: sugar control was very poor (HbAlc≧12%), or had severe grade ulcers (≧3). Initial assessment and standard wound care and debridement was given as in an ordinary diabetic foot clinic. The patients were reviewed two weeks later. In the second consultation, patients whose ulcer healed more than 25% with conventional foot ulcer care were excluded. Informed consent was obtained from the remaining patients and randomization was done by drawing envelopes, although the patients were blind to the concentrations of hEGF during the experiments. The final candidates were randomly assigned into three groups: • 1. Group 1 were treated with Acetovegin® 5% cream alone, which has the following compositions as indicated in the package of the cream: 1 g of cream contains 2 mg (corresponding to dry mass) of deproteinized hemoderivative of calf blood, and 0.2 mg of benzalkonium chloride. There was no particular reason in choosing Acetovegin® 5% cream as the control other than this cream was available at the clinic where the experiments were conducted. • 2. Group 2 patients were treated with Acetovegin® 5% cream (with composition as stated above) plus 0.02% (g/g) hEGF. • 3. Group 3 patients were treated with Acetovegin® 5% cream (with composition as stated above) plus 0.04% (g/g) hEGF. All patients were followed up on a biweekly bass for wound care and debridement and trimming of keratosis. Antibiotic would be given if it was infected as indicated by purulent discharge or by positive bacterial culture. Photos of the wound's size were being taken for computer measurement and comparing with a reference area having a known size. Local application of study cream was applied and covered with sterile gauze. Patients were instructed to have daily normal saline dressing and local application of cream in the government out-patient-clinic or community nurse would be asked to have home visit for those with ambulatory problem. Wound parameters, such as exudates sign of infection granulation tissue and eschar were documented in each visit and complete healing was defined as full epithelialization of the wound with absence of discharge. Analysis was based on intention to treat and Kaplan Meier survival analysis was employed to compare the healing rate between different groups. One way ANOVA was used for clinical parameters analysis. If more than one wound was present in one patient the total areas of the ulcers was taken together and treated as one single wound. Of the 30 patients that suffered from unhealed ulcers they were randomly assigned into 3 groups as stated above: Group-1 (9/30), the control, was treated with Acetovegin® 5% cream alone; Group-2 (9/30) was treated with Acetovegin® 5% cream plus 0.02% (g/g) hEGF; Group-3, (14/32) Acetovegin® 5% cream plus 0.04% (g/g) hEGF. The end point of a treatment was defined as complete closure of the wound, whereas failure to heal was defined as incomplete healing after 12 weeks of treatment. The experiment in Example 1 was repeated using Acetovegin® 5% cream plus 0.03% (g/g) hEGF. 8 patients, named Group-4, were treated.

[2] = system: diabetes ulcers; assay: Individuals suffering from prolonged diabetes ulcers treated with 0.04% hEGF composition; assay type: in vivo, human; settings: 0.04% (g/g) hEGF
Experimental: Three patients suffering from prolonged diabetes ulcers were treated with the composition of this invention containing 0.04% (g/g) hEGF. The following results were observed, with all of the patients were healed after as short as four weeks treatment: […]

[3] = system: right facial non-healing ulcer; assay: Individual suffering from prolonged unhealed surgical wound; assay type: in vivo, human; settings: Patient D
Description: Patient D was admitted for investigation of right facial non-healing ulcer after extraction of right mandibular molars and excision of facial fistula eleven months ago. […] There was sloughing of the right mandibular alveolus and the wound was tender. […] However, “definitively negative finding for malignancy nor basal cell carcinoma, quite normal looking oral epithelial mucosa” was reported by a pathologist. […] Patient was reviewed after two weeks of hEGF (0.04% (g/g)) local application. The composition is the same as that used in the above Group-3 patients. The right facial wound was healing, base of the wound looked fleshy with no discharge. The wound area decreased in size by about 30%.

[4] = system: bedsore; assay: Individual suffering from bedsore; assay type: in vivo, human; settings: 0.04% (g/g) EGF daily with normal saline dressing, after three-month treatment
Experimental: Patient B was bedridden at aged home for several years. […] They were referred to medical because the wound got worse with central grangrene after a two-month treatment.
They were then treated with Hibitane dressing for two weeks then normal saline dressing with the composition of this invention containing 0.04% (g/g) EGF daily.

[5] = system: burns; assay: Treating burns with EGF; assay type: in vivo; settings: 0.001% (g) of EGF
[6] = system: corneal and burn wounds; settings: EGF 10 μg/ml; cited from earlier work
[7] = system: venous stasis ulcers; settings: EGF 10 μg/ml; cited from earlier work
[8] = Patient A, after 2 weeks treatment
[9] = Patient A, after 3 weeks treatment
[10] = Patient B, after 3 weeks treatment
[11] = Patient B, after 5 weeks treatment
[12] = Patient B, after 9 weeks treatment
[13] = Patient C, after 4 weeks treatment
[14] = Patient C, after 6 weeks treatment

## human epidermal growth factor [hEGF]
[1]; 0.02% (g/g) EGF
  total healing outcome: may fail to achieve totally healing in some cases
[1]; 0.02% (g/g) or 0.04% (g/g) EGF
  reduction of the time required to achieve 50% healing: 2-4 weeks
[1]; 0.03% (g/g) EGF
  results compared with 0.04% (g/g) EGF: almost indistinguishable
[1]; 0.04% (g/g) EGF
  total healing outcome: all of the patients were totally healed after 12 wee
[1]; Group-2, 0.02% (g/g) hEGF
  50% Healed Time, mean survival time: 5.71±1.02 weeks and 5.71 weeks
  50% Healed Time, median survival time: 6.00 weeks
  100% Healed Time, mean survival time: 9.43±1.38 weeks and 9.43 weeks
[1]; Group-2, 0.02% (g/g) hEGF, limited to 12 weeks
  100% Healed Time, median survival time: 12.00 weeks
[1]; Group-2: Acetovegin 5% cream plus 0.02% (g/g) hEGF
  healing rate by the end of 12 weeks: 55%
[1]; Group-3, 0.04% (g/g) hEGF
  50% Healed Time, mean survival time: 4.50±0.82 weeks and 4.50 weeks
  50% Healed Time, median survival time: 4.00 weeks
  100% Healed Time, median survival time: 6.00 weeks
  100% Healed Time, mean survival time: 6.67 weeks
[1]; Group-3: Acetovegin 5% cream plus 0.04% (g/g) hEGF
  healing rate by the end of 12 weeks: 100%
[1]; Group-4, 0.03% (g/g) hEGF
  100% healing time, median survival time: 6 weeks
[1]; Group-4, 0.03% (g/g) hEGF, 2 weeks
  Cumulative Survival (unhealed fraction): 0.8750
[1]; Group-4, 0.03% (g/g) hEGF, 4 weeks
  Cumulative Survival (unhealed fraction): 0.6250
[1]; Group-4, 0.03% (g/g) hEGF, 6 weeks
  Cumulative Survival (unhealed fraction): 0.5000
[1]; Group-4, 0.03% (g/g) hEGF, 8 weeks
  Cumulative Survival (unhealed fraction): 0.3750
[1]; Group-4, 0.03% (g/g) hEGF, 10 weeks
  Cumulative Survival (unhealed fraction): 0.2500
[1]; Group-4, 0.03% (g/g) hEGF, 12 weeks
  Cumulative Survival (unhealed fraction): 0.1250
[1]; Group-4, Acetovegin 5% cream plus 0.03% (g/g) hEGF
  100% healing time, mean survival time (limited to 12): 7 weeks
[2]; [8]
  Healing Rate: 36.25%
  Ulcer Area: 1.02 cm^2
[2]; [9]
  Healing Rate: 100%
  Ulcer Area: 0 cm^2
[2]; [10]
  Healing Rate: 43.18%
  Ulcer Area: 3.79 cm^2
[2]; [11]
  Healing Rate: 75.71%
  Ulcer Area: 1.62 cm^2
[2]; [12]
  Healing Rate: 97.60%
  Ulcer Area: 0.16 cm^2
[2]; [13]
  Healing Rate: 89.34%
  Ulcer Area: 1.41 cm^2
[2]; [14]
  Healing Rate: 100%
  Ulcer Area: 0 cm^2
[3]; 0.04% (g/g) hEGF local application, after two weeks
  decrease of wound area in size: about 30%
[3]; 0.04% hEGF applied locally, after 5 weeks
  reduction of wound in size: approximately 50%
[4]
  wound outcome: healed and completely closed
[5]
  effect on wound healing of burns: effective in accelerating wound healing
[6]
  healing of corneal and burn wounds: promote healing
[7]
  epithelization in wounds of patients with venous stasis ulcers: failed to promote epithelization
